According to the NIST ThermoML archive (doi:10.1021/acs.jced.8b00011):
Several values for one entry are separate records, joined by “and”; a condition that tells them apart may be missing. Identical values can stand only once.

Conditions: Liquid; for electrical conductivity: electrochemical impedance spectroscopy; for mass density: Vibrating tube method

CCCCC[P+](CC)(CC)CC.O=S(=O)([N-]S(=O)(=O)C(F)(F)F)C(F)(F)F
Conditions	electrical conductivity [S/m]	viscosity
298.15 K, 60200 kPa, Falling or rolling sphere viscometry	–	188.2 mPa·s
298.15 K, 76900 kPa, Frequency=0 MHz	0.0691	–
298.15 K, 80100 kPa, Falling or rolling sphere viscometry	–	237.6 mPa·s
298.15 K, 99300 kPa, Frequency=0 MHz	0.0551	–
298.15 K, 100600 kPa, Falling or rolling sphere viscometry	–	299.8 mPa·s
298.15 K, 120600 kPa, Falling or rolling sphere viscometry	–	374.6 mPa·s
298.15 K, 120900 kPa, Falling or rolling sphere viscometry	–	375.1 mPa·s
298.15 K, 126100 kPa, Frequency=0 MHz	0.0413	–
298.15 K, 140500 kPa, Falling or rolling sphere viscometry	–	464.2 mPa·s
298.15 K, 149100 kPa, Frequency=0 MHz	0.0333	–
298.15 K, 160800 kPa, Falling or rolling sphere viscometry	–	575.1 mPa·s
298.15 K, 180200 kPa, Falling or rolling sphere viscometry	–	703.8 mPa·s
298.15 K, 199500 kPa, Falling or rolling sphere viscometry	–	855.3 mPa·s
298.15 K, 225400 kPa, Frequency=0 MHz	0.0159	–
298.15 K, 249800 kPa, Frequency=0 MHz	0.0127	–
298.16 K, 600 kPa, Frequency=0 MHz	0.164	–
298.16 K, 1600 kPa, Frequency=0 MHz	0.162	–
298.16 K, 201000 kPa, Frequency=0 MHz	0.0201	–
303.15 K, 100 kPa, Concentric cylinders viscometry	–	67.86 mPa·s
303.15 K, 100 kPa, Falling or rolling sphere viscometry	–	68.41 mPa·s
303.15 K, 700 kPa, Falling or rolling sphere viscometry	–	68.43 mPa·s
303.15 K, 10600 kPa, Falling or rolling sphere viscometry	–	78.1 mPa·s
303.15 K, 20600 kPa, Falling or rolling sphere viscometry	–	88.77 mPa·s
303.15 K, 30400 kPa, Falling or rolling sphere viscometry	–	100.3 mPa·s
303.15 K, 40600 kPa, Falling or rolling sphere viscometry	–	113.6 mPa·s
303.15 K, 50700 kPa, Falling or rolling sphere viscometry	–	128 mPa·s
303.15 K, 60800 kPa, Falling or rolling sphere viscometry	–	144.1 mPa·s
303.15 K, 80300 kPa, Falling or rolling sphere viscometry	–	179.8 mPa·s
303.15 K, 100100 kPa, Falling or rolling sphere viscometry	–	223.2 mPa·s
313.15 K, 100 kPa, Concentric cylinders viscometry	–	43.97 mPa·s
313.15 K, 100 kPa, Falling or rolling sphere viscometry	–	44.35 mPa·s [middle of 5 runs]
313.15 K, 700 kPa, Falling or rolling sphere viscometry	–	44.4 mPa·s
313.15 K, 10600 kPa, Falling or rolling sphere viscometry	–	50.22 mPa·s
313.15 K, 20600 kPa, Falling or rolling sphere viscometry	–	56.64 mPa·s
313.15 K, 30500 kPa, Falling or rolling sphere viscometry	–	63.64 mPa·s
313.15 K, 40500 kPa, Falling or rolling sphere viscometry	–	71.42 mPa·s
313.15 K, 50600 kPa, Falling or rolling sphere viscometry	–	79.95 mPa·s
313.15 K, 60600 kPa, Falling or rolling sphere viscometry	–	89.14 mPa·s
313.15 K, 80300 kPa, Falling or rolling sphere viscometry	–	109.9 mPa·s
313.15 K, 99900 kPa, Falling or rolling sphere viscometry	–	134.5 mPa·s
323.14 K, 800 kPa, Frequency=0 MHz	0.434	–
323.14 K, 3200 kPa, Frequency=0 MHz	0.423	–
323.14 K, 101600 kPa, Frequency=0 MHz	0.17	–
323.14 K, 150900 kPa, Frequency=0 MHz	0.113	–
323.14 K, 175500 kPa, Frequency=0 MHz	0.0922	–
323.15 K, 100 kPa, Concentric cylinders viscometry	–	30.06 mPa·s
323.15 K, 100 kPa, Falling or rolling sphere viscometry	–	29.89 mPa·s [middle of 5 runs]
323.15 K, 100 kPa, Frequency=0 MHz	0.437	–
323.15 K, 700 kPa, Falling or rolling sphere viscometry	–	30.1 mPa·s
323.15 K, 2200 kPa, Frequency=0 MHz	0.427	–

Conditions	electrical conductivity	mass density
303.15 K, 100 kPa	–	1298.32 kg/m3 [middle of 6 runs]
303.15 K, 101.33 kPa	0.208 S/m and 0.207 S/m	–
303.15 K, 1000 kPa	–	1298.99 kg/m3
303.15 K, 5000 kPa	–	1301.97 kg/m3
303.15 K, 10000 kPa	–	1305.55 kg/m3
303.15 K, 15000 kPa	–	1309.08 kg/m3
303.15 K, 20000 kPa	–	1312.5 kg/m3
303.15 K, 25000 kPa	–	1315.86 kg/m3
303.15 K, 30000 kPa	–	1319.11 kg/m3
303.15 K, 35000 kPa	–	1322.31 kg/m3
303.15 K, 40000 kPa	–	1325.42 kg/m3
303.15 K, 45000 kPa	–	1328.53 kg/m3
303.15 K, 50000 kPa	–	1331.53 kg/m3
308.15 K, 101.33 kPa	0.256 S/m and 0.255 S/m	–
313.15 K, 100 kPa	–	1290.13 kg/m3 [middle of 6 runs]
313.15 K, 101.33 kPa	0.31 S/m	–
313.15 K, 1000 kPa	–	1291.1 kg/m3
313.15 K, 5000 kPa	–	1294.18 kg/m3
313.15 K, 10000 kPa	–	1297.91 kg/m3
313.15 K, 15000 kPa	–	1301.54 kg/m3
313.15 K, 20000 kPa	–	1305.07 kg/m3
313.15 K, 25000 kPa	–	1308.48 kg/m3
313.15 K, 30000 kPa	–	1311.85 kg/m3
313.15 K, 35000 kPa	–	1315.16 kg/m3
313.15 K, 40000 kPa	–	1318.37 kg/m3
313.15 K, 45000 kPa	–	1321.53 kg/m3
313.15 K, 50000 kPa	–	1324.64 kg/m3
318.15 K, 101.33 kPa	0.371 S/m and 0.372 S/m	–
323.15 K, 100 kPa	–	1281.76 kg/m3 [middle of 6 runs]
323.15 K, 101.33 kPa	0.437 S/m and 0.44 S/m and 0.441 S/m	–
323.15 K, 1000 kPa	–	1282.87 kg/m3
